{
  "source": "patent US12343326B2",
  "about": "“Psychoactive medicines and their use for treating psychiatric and neurological conditions and disorders” (Transcend Therapeutics, Inc., priority 2021, dated 2025)",
  "assay_in_all_cases": "β-arrestin based GPCR screen (PathHunter / GPCRmax), antagonist mode",
  "key": {"168 GPCRs [1]": {"biological_target": "168 GPCRs (Homo sapiens, UniProt O43613)", "sequence (O43613 whole entry)": "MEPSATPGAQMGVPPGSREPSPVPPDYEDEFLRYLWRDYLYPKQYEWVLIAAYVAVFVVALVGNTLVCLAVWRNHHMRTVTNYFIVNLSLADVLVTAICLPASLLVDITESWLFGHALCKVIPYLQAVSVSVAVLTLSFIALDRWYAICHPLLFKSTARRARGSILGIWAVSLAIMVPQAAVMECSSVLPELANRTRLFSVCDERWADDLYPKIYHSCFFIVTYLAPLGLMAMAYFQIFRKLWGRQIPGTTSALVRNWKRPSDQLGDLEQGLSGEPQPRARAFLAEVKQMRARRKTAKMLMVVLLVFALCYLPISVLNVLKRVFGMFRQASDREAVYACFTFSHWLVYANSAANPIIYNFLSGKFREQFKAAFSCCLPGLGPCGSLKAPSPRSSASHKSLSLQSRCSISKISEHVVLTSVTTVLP"}, "168 GPCRs [2]": {"biological_target": "168 GPCRs (Homo sapiens, UniProt O95136)", "sequence (O95136 whole entry)": "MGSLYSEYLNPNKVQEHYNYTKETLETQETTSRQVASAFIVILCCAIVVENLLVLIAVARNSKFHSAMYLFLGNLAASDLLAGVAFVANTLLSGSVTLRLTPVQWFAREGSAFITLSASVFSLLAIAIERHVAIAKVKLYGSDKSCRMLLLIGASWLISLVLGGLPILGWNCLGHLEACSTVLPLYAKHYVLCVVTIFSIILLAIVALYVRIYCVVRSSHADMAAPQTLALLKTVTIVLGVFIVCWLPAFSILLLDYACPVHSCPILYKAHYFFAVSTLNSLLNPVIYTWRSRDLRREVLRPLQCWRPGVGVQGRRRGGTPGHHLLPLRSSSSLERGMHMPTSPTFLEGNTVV"}, "168 GPCRs [3]": {"biological_target": "168 GPCRs (Homo sapiens, UniProt P25090)", "sequence (P25090 whole entry)": "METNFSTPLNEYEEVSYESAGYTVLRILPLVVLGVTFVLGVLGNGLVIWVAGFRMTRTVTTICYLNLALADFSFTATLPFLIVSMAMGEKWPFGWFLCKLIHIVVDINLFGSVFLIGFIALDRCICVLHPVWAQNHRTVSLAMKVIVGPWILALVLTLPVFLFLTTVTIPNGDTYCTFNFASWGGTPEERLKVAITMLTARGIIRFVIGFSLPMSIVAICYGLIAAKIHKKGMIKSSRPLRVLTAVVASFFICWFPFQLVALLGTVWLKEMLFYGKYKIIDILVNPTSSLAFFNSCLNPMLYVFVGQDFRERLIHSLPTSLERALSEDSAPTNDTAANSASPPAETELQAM"}, "168 GPCRs [4]": {"biological_target": "168 GPCRs (Homo sapiens, UniProt P30518)", "sequence (P30518 whole entry)": "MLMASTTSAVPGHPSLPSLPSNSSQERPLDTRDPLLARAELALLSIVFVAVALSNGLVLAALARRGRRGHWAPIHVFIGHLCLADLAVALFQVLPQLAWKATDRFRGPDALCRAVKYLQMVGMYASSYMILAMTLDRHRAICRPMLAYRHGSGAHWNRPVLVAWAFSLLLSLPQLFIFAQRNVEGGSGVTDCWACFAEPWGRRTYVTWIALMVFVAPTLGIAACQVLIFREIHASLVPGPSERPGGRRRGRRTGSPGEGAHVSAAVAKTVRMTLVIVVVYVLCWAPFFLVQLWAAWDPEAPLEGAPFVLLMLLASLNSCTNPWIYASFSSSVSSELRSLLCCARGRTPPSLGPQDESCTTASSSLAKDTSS", "conditions": "AVPR2, Antagonist"}, "168 GPCRs [5]": {"biological_target": "T1, 168 GPCRs (Homo sapiens, UniProt P30939)", "T1 sequence (P30939 1-366)": "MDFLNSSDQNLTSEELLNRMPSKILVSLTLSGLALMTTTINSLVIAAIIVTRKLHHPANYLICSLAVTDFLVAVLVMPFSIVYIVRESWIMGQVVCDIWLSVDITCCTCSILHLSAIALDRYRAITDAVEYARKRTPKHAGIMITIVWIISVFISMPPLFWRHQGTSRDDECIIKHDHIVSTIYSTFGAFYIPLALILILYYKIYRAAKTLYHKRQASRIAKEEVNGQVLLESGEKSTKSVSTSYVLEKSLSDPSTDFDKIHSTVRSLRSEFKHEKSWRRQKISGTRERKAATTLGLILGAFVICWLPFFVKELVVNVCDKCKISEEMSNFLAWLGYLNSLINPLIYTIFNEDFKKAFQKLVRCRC", "conditions": "HTR1F"}, "168 GPCRs [6]": {"biological_target": "168 GPCRs (Homo sapiens, UniProt P32238)", "sequence (P32238 whole entry)": "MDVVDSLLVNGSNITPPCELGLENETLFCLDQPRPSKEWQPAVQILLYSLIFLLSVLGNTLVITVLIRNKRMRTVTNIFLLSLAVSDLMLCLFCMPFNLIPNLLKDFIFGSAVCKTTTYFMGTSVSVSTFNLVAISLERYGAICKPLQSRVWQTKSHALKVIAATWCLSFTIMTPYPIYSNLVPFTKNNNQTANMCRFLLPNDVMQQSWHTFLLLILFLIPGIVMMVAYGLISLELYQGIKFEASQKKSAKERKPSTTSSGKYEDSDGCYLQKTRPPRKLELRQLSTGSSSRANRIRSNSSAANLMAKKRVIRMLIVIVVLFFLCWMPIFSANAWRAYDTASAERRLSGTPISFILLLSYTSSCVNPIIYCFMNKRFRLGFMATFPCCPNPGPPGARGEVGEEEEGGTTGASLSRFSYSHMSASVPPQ", "conditions": "CCKAR, Antagonist"}, "168 GPCRs [7]": {"biological_target": "T2, 168 GPCRs (Homo sapiens, UniProt P32247)", "T2 sequence (P32247 1-399)": "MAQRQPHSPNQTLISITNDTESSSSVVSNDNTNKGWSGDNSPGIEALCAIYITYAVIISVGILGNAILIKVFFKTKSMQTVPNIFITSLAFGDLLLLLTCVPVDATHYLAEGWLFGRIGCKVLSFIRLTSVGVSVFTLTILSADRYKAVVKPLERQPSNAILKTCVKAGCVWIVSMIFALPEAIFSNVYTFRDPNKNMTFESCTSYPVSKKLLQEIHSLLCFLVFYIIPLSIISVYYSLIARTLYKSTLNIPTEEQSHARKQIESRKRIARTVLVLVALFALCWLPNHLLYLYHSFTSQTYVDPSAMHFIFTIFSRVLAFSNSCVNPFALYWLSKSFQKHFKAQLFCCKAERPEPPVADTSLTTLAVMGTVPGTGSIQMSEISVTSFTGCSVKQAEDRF", "conditions": "BRS3, Antagonist"}, "168 GPCRs [8]": {"biological_target": "168 GPCRs (Homo sapiens, UniProt P35372)", "sequence (P35372 whole entry)": "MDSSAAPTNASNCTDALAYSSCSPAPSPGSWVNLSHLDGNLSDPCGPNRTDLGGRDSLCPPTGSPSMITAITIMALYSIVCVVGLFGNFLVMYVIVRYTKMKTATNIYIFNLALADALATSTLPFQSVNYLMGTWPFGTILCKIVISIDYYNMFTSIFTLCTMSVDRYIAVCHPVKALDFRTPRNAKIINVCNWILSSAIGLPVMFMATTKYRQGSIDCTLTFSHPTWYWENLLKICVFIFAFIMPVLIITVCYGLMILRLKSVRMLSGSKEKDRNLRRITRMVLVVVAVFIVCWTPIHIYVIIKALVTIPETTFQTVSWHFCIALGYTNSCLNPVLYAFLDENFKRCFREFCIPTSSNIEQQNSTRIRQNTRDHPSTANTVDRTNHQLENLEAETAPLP"}, "168 GPCRs [9]": {"biological_target": "168 GPCRs (Homo sapiens, UniProt P35408)", "sequence (P35408 whole entry)": "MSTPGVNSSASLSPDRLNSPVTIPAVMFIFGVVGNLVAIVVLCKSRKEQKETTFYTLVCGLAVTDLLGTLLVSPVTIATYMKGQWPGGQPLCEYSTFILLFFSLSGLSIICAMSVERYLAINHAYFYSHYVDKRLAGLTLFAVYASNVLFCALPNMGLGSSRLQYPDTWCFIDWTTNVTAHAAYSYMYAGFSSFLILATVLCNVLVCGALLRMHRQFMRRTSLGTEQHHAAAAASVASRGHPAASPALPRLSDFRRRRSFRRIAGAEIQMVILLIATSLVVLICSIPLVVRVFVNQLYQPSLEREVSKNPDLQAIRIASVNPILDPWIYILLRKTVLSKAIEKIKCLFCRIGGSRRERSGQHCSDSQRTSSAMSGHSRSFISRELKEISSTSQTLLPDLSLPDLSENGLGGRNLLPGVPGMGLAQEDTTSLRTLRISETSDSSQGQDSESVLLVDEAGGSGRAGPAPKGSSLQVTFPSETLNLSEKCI"}, "168 GPCRs [10]": {"biological_target": "168 GPCRs (Homo sapiens, UniProt P35414)", "sequence (P35414 whole entry)": "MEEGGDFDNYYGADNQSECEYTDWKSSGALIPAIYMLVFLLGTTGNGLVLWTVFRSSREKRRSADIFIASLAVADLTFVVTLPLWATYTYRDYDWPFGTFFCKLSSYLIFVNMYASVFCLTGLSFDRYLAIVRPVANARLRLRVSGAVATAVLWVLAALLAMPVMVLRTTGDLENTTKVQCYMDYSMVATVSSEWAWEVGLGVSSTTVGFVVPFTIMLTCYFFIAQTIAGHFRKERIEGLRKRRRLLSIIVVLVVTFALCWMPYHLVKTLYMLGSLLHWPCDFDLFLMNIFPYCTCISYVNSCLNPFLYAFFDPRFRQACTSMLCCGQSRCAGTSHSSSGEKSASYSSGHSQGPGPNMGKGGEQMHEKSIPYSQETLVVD", "conditions": "AGTRL1, Antagonist"}, "168 GPCRs [11]": {"biological_target": "168 GPCRs (Homo sapiens, UniProt P35462)", "sequence (P35462 whole entry)": "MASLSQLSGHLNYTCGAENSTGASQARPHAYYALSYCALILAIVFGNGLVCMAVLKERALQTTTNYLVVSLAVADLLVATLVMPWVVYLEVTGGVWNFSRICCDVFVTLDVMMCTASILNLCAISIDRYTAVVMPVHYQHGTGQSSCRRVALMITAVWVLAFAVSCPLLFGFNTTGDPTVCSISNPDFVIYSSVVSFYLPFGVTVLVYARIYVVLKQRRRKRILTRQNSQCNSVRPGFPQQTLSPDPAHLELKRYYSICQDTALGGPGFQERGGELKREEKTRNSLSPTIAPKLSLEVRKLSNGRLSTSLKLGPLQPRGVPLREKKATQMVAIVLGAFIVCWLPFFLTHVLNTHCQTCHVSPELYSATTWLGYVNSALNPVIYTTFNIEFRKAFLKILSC"}, "168 GPCRs [12]": {"biological_target": "168 GPCRs (Homo sapiens, UniProt P41597)", "sequence (P41597 whole entry)": "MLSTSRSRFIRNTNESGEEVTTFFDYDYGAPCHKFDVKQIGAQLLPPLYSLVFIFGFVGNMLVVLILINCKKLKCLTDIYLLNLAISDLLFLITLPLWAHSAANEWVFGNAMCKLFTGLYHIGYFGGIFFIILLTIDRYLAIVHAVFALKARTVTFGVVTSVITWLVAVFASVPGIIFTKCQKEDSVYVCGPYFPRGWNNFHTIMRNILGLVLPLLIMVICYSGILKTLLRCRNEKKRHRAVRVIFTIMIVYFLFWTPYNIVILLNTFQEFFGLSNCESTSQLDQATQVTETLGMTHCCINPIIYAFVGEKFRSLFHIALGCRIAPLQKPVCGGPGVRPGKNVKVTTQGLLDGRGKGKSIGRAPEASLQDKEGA", "conditions": "CCR2, Antagonist"}, "168 GPCRs [13]": {"biological_target": "168 GPCRs (Homo sapiens, UniProt P51582)", "sequence (P51582 whole entry)": "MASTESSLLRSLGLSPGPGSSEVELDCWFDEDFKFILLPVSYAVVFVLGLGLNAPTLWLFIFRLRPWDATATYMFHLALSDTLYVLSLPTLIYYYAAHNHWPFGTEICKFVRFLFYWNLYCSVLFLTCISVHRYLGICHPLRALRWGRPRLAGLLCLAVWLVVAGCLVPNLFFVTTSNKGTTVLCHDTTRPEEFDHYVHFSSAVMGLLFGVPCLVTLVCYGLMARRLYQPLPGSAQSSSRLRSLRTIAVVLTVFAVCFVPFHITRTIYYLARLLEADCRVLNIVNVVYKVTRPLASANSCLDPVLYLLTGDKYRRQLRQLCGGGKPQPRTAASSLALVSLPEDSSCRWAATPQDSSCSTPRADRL"}, "168 GPCRs [14]": {"biological_target": "168 GPCRs (Homo sapiens, UniProt Q969F8)", "sequence (Q969F8 whole entry)": "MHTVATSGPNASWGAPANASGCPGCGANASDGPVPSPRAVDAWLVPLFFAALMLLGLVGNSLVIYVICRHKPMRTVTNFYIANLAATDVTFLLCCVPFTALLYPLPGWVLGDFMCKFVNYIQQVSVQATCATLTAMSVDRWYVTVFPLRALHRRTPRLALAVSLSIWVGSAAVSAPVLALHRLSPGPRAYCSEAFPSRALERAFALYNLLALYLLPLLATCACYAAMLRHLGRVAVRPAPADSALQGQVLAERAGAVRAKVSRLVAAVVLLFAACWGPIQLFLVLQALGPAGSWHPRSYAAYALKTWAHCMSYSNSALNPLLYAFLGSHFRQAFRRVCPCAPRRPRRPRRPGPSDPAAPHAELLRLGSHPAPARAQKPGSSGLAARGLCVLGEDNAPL", "conditions": "KISS1R"}, "168 GPCRs [15]": {"biological_target": "T3, 168 GPCRs (Homo sapiens, UniProt Q96RI0)", "T3 sequence (Q96RI0 18-385)": "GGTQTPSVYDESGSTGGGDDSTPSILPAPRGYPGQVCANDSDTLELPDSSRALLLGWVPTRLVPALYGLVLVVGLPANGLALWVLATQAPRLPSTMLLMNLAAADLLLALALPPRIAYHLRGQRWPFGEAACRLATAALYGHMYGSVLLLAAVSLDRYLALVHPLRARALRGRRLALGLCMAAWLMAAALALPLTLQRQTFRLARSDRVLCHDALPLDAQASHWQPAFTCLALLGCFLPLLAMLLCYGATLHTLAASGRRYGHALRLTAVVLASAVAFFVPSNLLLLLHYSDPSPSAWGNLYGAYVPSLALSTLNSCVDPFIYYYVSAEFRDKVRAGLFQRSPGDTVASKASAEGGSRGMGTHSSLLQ"}},
  "data": [
    {"smiles": "CNC(C)C(=O)c1ccc2c(c1)OCO2", "note": "(stereo not drawn) [methylone, 3,4-methylenedioxy-N-methylcathinone]", "values": [
      {"measurement": "activity at 10 µM", "setting": "168 GPCRs [1]; HCRTR1, Antagonist mode, 10 uM", "result": 1.2, "unit": "%"},
      {"measurement": "activity at 1 µM", "setting": "168 GPCRs [1]; HCRTR1, Antagonist, 1 uM", "result": 2.3, "unit": "%"},
      {"measurement": "activity at 10 µM", "setting": "168 GPCRs [2]; EDG5, Antagonist mode, 10 uM", "result": -6.3, "unit": "%"},
      {"measurement": "activity at 1 µM", "setting": "168 GPCRs [2]; EDG5, Antagonist, 1 uM", "result": -3.4, "unit": "%"},
      {"measurement": "activity at 10 µM", "setting": "168 GPCRs [3]; FPRL1, Antagonist mode, 10 uM", "result": 3.9, "unit": "%"},
      {"measurement": "activity at 1 µM", "setting": "168 GPCRs [3]; FPRL1, Antagonist, 1 uM", "result": 12.3, "unit": "%"},
      {"measurement": "activity at 1 µM", "setting": "168 GPCRs [4]; 1 uM", "result": -2.7, "unit": "%"},
      {"measurement": "activity at 10 µM", "setting": "168 GPCRs [4]; 10 uM", "result": -14.8, "unit": "%"},
      {"measurement": "activity at 10 µM", "setting": "168 GPCRs [5]; Antagonist mode, 10 uM", "result": 9.2, "unit": "%"},
      {"measurement": "activity at 1 µM", "setting": "168 GPCRs [5]; Antagonist, 1 uM", "result": 14.4, "unit": "%"},
      {"measurement": "activity at 1 µM", "setting": "168 GPCRs [6]; 1 uM", "result": -4.3, "unit": "%"},
      {"measurement": "activity at 10 µM", "setting": "168 GPCRs [6]; 10 uM", "result": -3.3, "unit": "%"},
      {"measurement": "activity at 1 µM", "setting": "168 GPCRs [7]; 1 uM", "result": 18.3, "unit": "%"},
      {"measurement": "activity at 10 µM", "setting": "168 GPCRs [7]; 10 uM", "result": 10.1, "unit": "%"},
      {"measurement": "activity at 10 µM", "setting": "168 GPCRs [8]; OPRM1, OPRM1, Antagonist mode, 10 uM", "result": -18, "unit": "%"},
      {"measurement": "activity at 1 µM", "setting": "168 GPCRs [8]; OPRM1, OPRM1, Antagonist, 1 uM", "result": -8, "unit": "%"},
      {"measurement": "activity at 10 µM", "setting": "168 GPCRs [9]; PTGER4, Antagonist mode, 10 uM", "result": 4.3, "unit": "%"},
      {"measurement": "activity at 1 µM", "setting": "168 GPCRs [9]; PTGER4, Antagonist, 1 uM", "result": 10.1, "unit": "%"},
      {"measurement": "activity at 1 µM", "setting": "168 GPCRs [10]; 1 uM", "result": -3.3, "unit": "%"},
      {"measurement": "activity at 10 µM", "setting": "168 GPCRs [10]; 10 uM", "result": -4.1, "unit": "%"},
      {"measurement": "activity at 10 µM", "setting": "168 GPCRs [11]; DRD3, Antagonist mode, 10 uM", "result": -17.8, "unit": "%"},
      {"measurement": "activity at 1 µM", "setting": "168 GPCRs [11]; DRD3, Antagonist, 1 uM", "result": -12, "unit": "%"},
      {"measurement": "activity at 1 µM", "setting": "168 GPCRs [12]; 1 uM", "result": 2, "unit": "%"},
      {"measurement": "activity at 10 µM", "setting": "168 GPCRs [12]; 10 uM", "result": 4.9, "unit": "%"},
      {"measurement": "activity at 10 µM", "setting": "168 GPCRs [13]; P2RY4, Antagonist mode, 10 uM", "result": 17.5, "unit": "%"},
      {"measurement": "activity at 1 µM", "setting": "168 GPCRs [13]; P2RY4, Antagonist, 1 uM", "result": 15.1, "unit": "%"},
      {"measurement": "activity at 10 µM", "setting": "168 GPCRs [14]; Antagonist mode, 10 uM", "result": 14.5, "unit": "%"},
      {"measurement": "activity at 1 µM", "setting": "168 GPCRs [14]; Antagonist, 1 uM", "result": 28.7, "unit": "%"},
      {"measurement": "activity at 10 µM", "setting": "168 GPCRs [15]; F2RL3, Antagonist mode, 10 uM", "result": -6.9, "unit": "%"},
      {"measurement": "activity at 1 µM", "setting": "168 GPCRs [15]; F2RL3, Antagonist, 1 uM", "result": -11.3, "unit": "%"}
    ]}
  ]
}
